What was measured:
[1] = target: T1, M. smegmatis ICD (MsmICD) (Mycolicibacterium smegmatis, UniProt A0QSZ3); assay: isothermal titration calorimetry; assay type: binding; settings: pH 7.5, 25 °C, 10 mM Tris, 10 mM EDTA, 2.5 mM MgCl2; putative allosteric activator; 1:1 single-site fit
T1 construct: gene MSMEG_1654; full ORF, 743 AA; pET-28a(+), C-terminal TEV site and 6-His tag, tag removed by TEV; E. coli BL21(DE3); text says mycobacterial ICD2 forms dimers in solution
Source text: isothermal titration calorimetry on M. smegmatis ICD (MsmICD)

[2] = target: T1, M. smegmatis ICD (MsmICD); assay: X-ray crystal structure, […] Å; assay type: binding; settings: Mn2+ bound; crystals pre-incubated with glyoxylate, MnCl2, isocitrate and NADP+; pH 7.5

O=CC(=O)O [glyoxylate]
K (M^-1) [1]: 1.10e^6±4.21e^5

O=C(O)C[C@H](C(=O)O)[C@@H](O)C(=O)O (racemic) [isocitrate]
X-ray crystal structure, 2.8 Å [2]: We determined the structure of MsmICD bound to isocitrate and manganese
